Read-outs that look alike come from different tables or passages of the source.
How the values were obtained:
[1] = Clinical plasma concentration of tucatinib; assay type: in vivo; settings: human, read-out: Mean clinical maximum observed concentration (Cmax)
[2] = molecular target: MATE2K (Homo sapiens, UniProt Q86VL8); experiment: In vitro inhibition of MATE2K transporter; assay type: in vitro ADME
[3] = Example 2 Part E: single- and multiple-dose PK of tucatinib and ONT-993; assay type: in vivo, human; settings: tucatinib 300 mg BID, Day 14 vs Day 8
[4] = molecular target: CYP3A4 (Homo sapiens, UniProt P08684); experiment: Example 2 Part A: effect of strong CYP3A4 inhibitor itraconazole on PK of tucatinib; assay type: in vivo; parameters: endogenous in cells; host or cells: healthy human subjects, in vivo; settings: tucatinib 300 mg single dose in combination with itraconazole vs tucatinib alone
Chain of CYP3A4 (P08684 whole entry): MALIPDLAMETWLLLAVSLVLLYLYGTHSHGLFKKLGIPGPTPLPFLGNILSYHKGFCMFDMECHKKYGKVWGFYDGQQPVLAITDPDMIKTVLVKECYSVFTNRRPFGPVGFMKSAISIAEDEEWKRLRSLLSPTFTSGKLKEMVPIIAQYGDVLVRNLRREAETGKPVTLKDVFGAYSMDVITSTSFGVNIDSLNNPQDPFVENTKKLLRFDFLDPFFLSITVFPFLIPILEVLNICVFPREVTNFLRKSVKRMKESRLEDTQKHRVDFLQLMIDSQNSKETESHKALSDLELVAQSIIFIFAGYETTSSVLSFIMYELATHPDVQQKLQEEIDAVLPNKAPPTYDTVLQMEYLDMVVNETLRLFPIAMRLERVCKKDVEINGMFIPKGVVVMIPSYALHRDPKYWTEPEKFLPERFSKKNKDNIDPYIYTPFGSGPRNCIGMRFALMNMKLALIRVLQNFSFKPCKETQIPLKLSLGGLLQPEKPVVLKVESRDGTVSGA
Procedure: A primary objective of the study is to assess the effect of a strong CYP3A4 inhibitor (itraconazole) on the single-dose PK of tucatinib. […] They were discharged on Day 8 after completion of the in-patient assessments. […] On Day 3, each subject received oral doses of 200 mg of itraconazole, twice daily (BID). From Day 4 to Day 7, each subject received single oral doses of 200 mg of itraconazole once daily (QD). Itraconazole was administered in the fed state (within 5 minutes after completion of meals). On Day 6, each subject received a single oral dose of 300 mg of tucatinib at about 2 hours after the completion of breakfast and after itraconazole in the morning. […] Other noncompartmental PK parameters may be reported. Additionally, blood samples were collected for determination of trough levels of itraconazole prior to morning dosing on the days indicated in FIG. 5.

[5] = tested on: CYP3A4/5; experiment: Cytochrome P450 3A4/5 inhibition in human liver microsomes (Example 4); assay type: in vitro ADME; settings: both sexes, pooled human liver microsomes
Procedure: This in vitro study was designed to evaluate the ability of tucatinib to inhibit the major CYP enzyme CYP3A4/5 in human liver microsomes (using two different substrates) with the aim of ascertaining the potential of tucatinib to inhibit the metabolism of concomitantly administered drugs. The inhibitory potency of tucatinib was determined in vitro by measuring the activity of CYP3A4/5 in human liver microsomes in the presence and absence of tucatinib. […] Metabolism-dependent inhibition was further evaluated to determine how quickly (kinact value) and to what extent (Ki value) tucatinib inactivates CYP3A4/5.
Human liver microsomes from non-transplantable, donated livers were prepared and characterized. A mixed-gender pool of 200 individual human liver microsomal samples was used for this study (Sekisui XenoTech catalog number: H2620, lot number: 1210347).
To measure CYP activity, incubations were conducted at approximately 37° C. in 200 μL incubation mixtures (pH 7.4) containing water, potassium phosphate buffer (50 mM), MgCl2 (3 mM), EDTA (1 mM), an NADPH-regenerating system (always the mixture of the following: NADP [1 mM], glucose 6 phosphate [5 mM], glucose 6 phosphate dehydrogenase [1 Unit/mL]), and marker substrate at the final concentrations indicated.
Aliquots of the stock and/or working solutions of tucatinib were manually added to buffer mixtures described above. Incubation mixtures were prepared in bulk to obviate the need for directly pipetting very small volumes (i.e., 1 μL or less). Incubations containing no tucatinib (0 μM; Solvent Control) contained the solvent used to dissolve tucatinib (i.e., DMSO).
The Tecan liquid handling system conducted all remaining steps for the IC50 and Kl/kinact determinations, with the exception of the centrifugation. For these assays, duplicate aliquots of the buffer mixtures were automatically added to 96-well plates at the appropriate locations. Aliquots of a substrate working solution were added to the 96-well plates prior to initiating reactions. Marker substrate reactions were initiated by the addition of an aliquot of an NADPH-regenerating system and were automatically terminated at approximately 5 min by the addition of the appropriate internal standard and stop reagent, acetonitrile. The samples were centrifuged at 920×g for 10 min at 10° C. The supernatant fractions were analyzed by LC-MS/MS. Standards were similarly prepared with the addition of authentic metabolite standards.
Due to the possibility that tucatinib may bind to microsomal protein or lipids, an attempt was made to design these experiments such that, in as many cases as possible, the microsomal protein, incubation time and buffer concentration were 0.1 mg/mL, 5 min and 50 mM, respectively.
To examine its ability to act as a direct inhibitor of enzymes, tucatinib (at concentrations ranging from 0.01 to 10 μM) was incubated with marker substrate and human liver microsomes. The concentrations of marker substrates were based on the Km or S50 data that were determined previously.
To examine its ability to act as a metabolism-dependent inhibitor of CYP3A4/5 enzymes, tucatinib (at the same concentrations used to evaluate direct inhibition) was preincubated at 37±2° C., in duplicate, with human liver microsomes and an NADPH-regenerating system for approximately 30 min. This preincubation allowed for the generation of intermediates that could inhibit human CYP3A4/5 activity. The preincubations were initiated by the addition of an aliquot of an NADPH-regenerating system. To examine its ability to act as a time-dependent inhibitor of CYP3A4/5 enzymes, additional duplicate samples at all tucatinib concentrations were preincubated for 30 min in the presence of pooled human liver microsomes, but in the absence of NADPH. This preincubation allowed assessment of whether any potential increase in inhibition was dependent upon NADPH (e.g., potentially CYP-mediated). […]

[6] = molecular target: T1, breast cancer resistance protein (BCRP) (Homo sapiens, UniProt Q9UNQ0); experiment: In vitro inhibition of BCRP activity; assay type: in vitro ADME
T1 sequence (Q9UNQ0 1-655): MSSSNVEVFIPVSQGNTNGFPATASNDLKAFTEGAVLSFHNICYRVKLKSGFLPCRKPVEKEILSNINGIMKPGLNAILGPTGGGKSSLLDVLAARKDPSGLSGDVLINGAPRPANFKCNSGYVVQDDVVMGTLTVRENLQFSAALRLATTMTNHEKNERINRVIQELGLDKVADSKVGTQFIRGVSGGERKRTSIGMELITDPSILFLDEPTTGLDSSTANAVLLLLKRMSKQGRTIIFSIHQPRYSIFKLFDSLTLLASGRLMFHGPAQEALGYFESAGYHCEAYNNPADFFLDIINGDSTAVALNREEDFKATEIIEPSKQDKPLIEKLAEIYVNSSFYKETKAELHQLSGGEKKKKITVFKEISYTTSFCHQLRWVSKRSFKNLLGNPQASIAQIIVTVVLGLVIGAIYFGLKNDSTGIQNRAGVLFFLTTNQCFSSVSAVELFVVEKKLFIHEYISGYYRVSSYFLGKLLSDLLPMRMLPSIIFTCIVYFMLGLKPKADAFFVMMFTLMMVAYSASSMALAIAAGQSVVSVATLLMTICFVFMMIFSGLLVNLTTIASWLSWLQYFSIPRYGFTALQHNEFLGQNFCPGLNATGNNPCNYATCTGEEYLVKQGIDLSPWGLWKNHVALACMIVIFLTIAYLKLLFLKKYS

Chain of MATE2K (Q86VL8 1-566 isoform Q86VL8-3): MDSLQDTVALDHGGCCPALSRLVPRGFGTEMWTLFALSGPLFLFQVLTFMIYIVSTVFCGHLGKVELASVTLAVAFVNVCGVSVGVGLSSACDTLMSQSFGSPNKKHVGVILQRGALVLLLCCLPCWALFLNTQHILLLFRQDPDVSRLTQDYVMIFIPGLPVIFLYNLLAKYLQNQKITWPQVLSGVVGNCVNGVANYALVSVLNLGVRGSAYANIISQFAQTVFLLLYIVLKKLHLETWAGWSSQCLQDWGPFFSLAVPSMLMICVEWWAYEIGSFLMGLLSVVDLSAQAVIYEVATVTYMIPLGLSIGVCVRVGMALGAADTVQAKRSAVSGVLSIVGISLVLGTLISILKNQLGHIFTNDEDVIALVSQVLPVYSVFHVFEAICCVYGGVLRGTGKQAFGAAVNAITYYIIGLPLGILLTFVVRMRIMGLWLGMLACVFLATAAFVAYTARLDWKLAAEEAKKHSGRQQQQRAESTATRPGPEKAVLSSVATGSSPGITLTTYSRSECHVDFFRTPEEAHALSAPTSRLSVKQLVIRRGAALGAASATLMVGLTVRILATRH

## Cc1cc(Nc2ncnc3ccc(NC4=NC(C)(C)CO4)cc23)ccc1Oc1ccn2ncnc2c1 [tucatinib]
[1]
  Cmax: 1000 to 2000 nM
[2]
  IC50: 0.14 µM
[3]
  Rac (accumulation ratio) after multiple dosing: 1.50
[4]
  Geometric LS mean ratio (90% CI), AUC0-∞: 1.34 (1.26, 1.43)
  Geometric LS mean ratio (90% CI), AUClast: 1.33 (1.25, 1.41)
  Geometric LS mean ratio (90% CI), Cmax: 1.32 (1.23, 1.42)
[5]; human, pH 7.4, probe midazolam (1′-hydroxylation), midazolam 1′-hydroxylation, read-out: Efficiency of inactivation (kinact/KI) (converted)
  kinact/KI: 350 M⁻¹ s⁻¹
[5]; human, pH 7.4, probe midazolam (1′-hydroxylation), read-out: IC50, direct inhibition of CYP3A4/5-mediated midazolam 1′-hydroxylation
  IC50 at 5 min: 3.3 µM
[5]; human, pH 7.4, probe midazolam (1′-hydroxylation), read-out: KI, inactivation of CYP3A4/5-mediated midazolam 1′-hydroxylation, mean±SE
  KI (inactivation): 0.54 ± 0.25 µM
[5]; human, pH 7.4, probe midazolam (1′-hydroxylation), read-out: kinact, inactivation of CYP3A4/5-mediated midazolam 1′-hydroxylation, mean±SE (converted)
  kinact: 0.000183 s⁻¹
[5]; human, pH 7.4, probe testosterone (6β-hydroxylation), read-out: IC50, direct inhibition of CYP3A4/5-mediated testosterone 6p-hydroxylation
  IC50 at 5 min: > 10 µM
[5]; pH 7.4, probe testosterone (6β-hydroxylation), human liver microsomes, up to 10 μM, read-out: Maximum direct inhibition of CYP3A4/5-mediated testosterone 6p-hydroxylation
  inhibition at 5 min: 44%
[6]
  IC50: 8.98 µM

From patent publication US20220193076A1, “METHODS OF TREATING BREAST CANCER WITH TUCATINIB” (Seagen Inc., priority 2019, published 2022)
